Laboratory results reported in PMC6977461 (Chemical Science, 2019).
Where two headings read alike, the source gives them in different places.

Assays:
mouse GLP-1 receptor = target: T1, mouse GLP-1 receptor (Mus musculus, UniProt O35659); experiment: cAMP production in βTC6 cells expressing GLP-1R endogenously (Method C2); format: cell-based; conditions: for Potency (%), Table S1: from EC50 in βTC6 cAMP assay, footnote: compare to GLP-1-NH2 (2)
T1 construct: βTC6 cells which express GLP-1R endogenously; host or cells: βTC6 cells
T1 sequence (O35659 22-463): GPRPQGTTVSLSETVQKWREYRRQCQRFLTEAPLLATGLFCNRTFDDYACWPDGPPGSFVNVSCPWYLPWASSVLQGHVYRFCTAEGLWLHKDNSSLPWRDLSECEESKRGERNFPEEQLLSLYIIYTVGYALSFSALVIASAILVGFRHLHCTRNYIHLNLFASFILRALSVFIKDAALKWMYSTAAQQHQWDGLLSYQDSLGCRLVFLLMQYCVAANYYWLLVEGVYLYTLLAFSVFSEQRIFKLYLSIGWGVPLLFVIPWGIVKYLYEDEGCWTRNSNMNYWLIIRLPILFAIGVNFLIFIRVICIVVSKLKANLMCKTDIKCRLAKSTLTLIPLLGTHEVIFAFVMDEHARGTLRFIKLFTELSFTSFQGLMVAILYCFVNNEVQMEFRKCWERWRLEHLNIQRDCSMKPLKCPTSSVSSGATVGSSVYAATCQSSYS
Protocol:  HEK-293T cells (Multispan inc., lot#.DC1267-062017) were suspended in cell culture media
(DMEM 1X + GlutaMAX (Gibco 31966-021)) complemented with FBS 10% (Sigma Aldrich
 βTC6 cells were suspended in HBSS buffer (Invitrogen) complemented with 20 mM HEPES (pH
In vitro pharmacology on HEK-293T cells (EC50: Method C1)
cells (Multispan inc., lot#.DC1267-062017) was determined by measuring their effects on cAMP
production using the HTRF detection method (performed by UREkA SARL). The cells were distributed
in 384-well microplates at a density of 1.0x10^4 cells/well. Stock solutions of the test compounds or the
reference agonist were prepared at a concentration of 1 mM in DMSO. Then, compounds to be tested
were diluted in cell culture media and transferred to the plate containing the cells to reach final assay

[1] = mouse plasma degradation assay (Methods MP1-MP3); format: in vitro ADME; conditions: mouse, plasma, pH 7.4
Protocol: The oligomer was then diluted 1/50 with a solution of plasma/PBS pH 7.4 (1/1) to afford a final concentration of 5μM and incubated at 37°C. […] (t = 0 min was determined using the reaction without plasma). The samples were frozen at -80°C before analysis. […] The supernatant was analyzed by LC-MS. The time course of oligomer degradation was determined by integrating the area of the peak in the extracted ion chromatogram. […] The oligomer was then diluted 1/50 with a solution of plasma/PBS pH 7.4 (1/1) to afford a final concentration of 5μM and incubated at 37°C. […] The oligomer was then diluted 1/50 with a solution of plasma/PBS pH 7.4 (1/1) to afford a final concentration of 5μM and incubated at 37°C. […] Animals. […] A standard chow diet (RM1 (E) 801492, SDS) and tap water were provided ad libitum. All animal protocols done by Physiogenex S.A.S were reviewed and approved by the local (Comité […] national ([…]

[2] = read-out: EC50 (GLP-1R potency), Table S1

SMILES: CC[C@H](C)[C@H](NC(=O)[C@H](Cc1ccccc1)NC(=O)[C@H](CCC(=O)O)NC(=O)[C@H](CCCCN)NC(=O)[C@H](C)NC(=O)[C@H](C)NC(=O)[C@H](CCC(N)=O)NC(=O)CNC(=O)[C@H](CCC(=O)O)NC(=O)[C@H](CC(C)C)NC(=O)[C@H](Cc1ccc(O)cc1)NC(=O)[C@H](CO)NC(=O)[C@H](CO)NC(=O)[C@@H](NC(=O)[C@H](CC(=O)O)NC(=O)[C@H](CO)NC(=O)[C@@H](NC(=O)[C@H](Cc1ccccc1)NC(=O)[C@@H](NC(=O)CNC(=O)[C@H](CCC(=O)O)NC(=O)NC[C@H](CCC(=O)O)NC(=O)[C@@H](N)Cc1c[nH]cn1)[C@@H](C)O)[C@@H](C)O)C(C)C)C(=O)N[C@@H](C)C(=O)N[C@@H](Cc1c[nH]c2ccccc12)C(=O)N[C@@H](CC(C)C)C(=O)N[C@H](C(=O)N[C@@H](CCCCN)C(=O)NCC(=O)N[C@@H](CCCNC(=N)N)C(=O)NCC(N)=O)C(C)C [S5]
- Potency (%), Table S1 (mouse GLP-1 receptor): < 0.01%
- EC50 (mouse GLP-1 receptor; [2]): > 10000 nM

SMILES: CC[C@H](C)[C@H](NC(=O)[C@H](Cc1ccccc1)NC(=O)[C@H](CCC(=O)O)NC(=O)[C@H](CCCCN)NC(=O)[C@H](C)NC(=O)[C@H](C)NC(=O)[C@H](CCC(N)=O)NC(=O)CNC(=O)[C@H](CCC(=O)O)NC(=O)[C@H](CC(C)C)NC(=O)[C@H](Cc1ccc(O)cc1)NC(=O)[C@H](CO)NC(=O)[C@H](CO)NC(=O)[C@@H](NC(=O)[C@H](CC(=O)O)NC(=O)[C@H](CO)NC(=O)[C@@H](NC(=O)[C@H](Cc1ccccc1)NC(=O)[C@@H](NC(=O)CNC(=O)[C@H](CCC(=O)O)NC(=O)NC[C@@H](NC(=O)[C@@H](N)Cc1c[nH]cn1)[C@@H](C)CC)[C@@H](C)O)[C@@H](C)O)C(C)C)C(=O)N[C@@H](C)C(=O)N[C@@H](Cc1c[nH]c2ccccc12)C(=O)N[C@@H](CC(C)C)C(=O)N[C@H](C(=O)N[C@@H](CCCCN)C(=O)NCC(=O)N[C@@H](CCCNC(=N)N)C(=O)NCC(N)=O)C(C)C [S6]
- Potency (%), Table S1 (mouse GLP-1 receptor): < 0.01%
- EC50 (mouse GLP-1 receptor; [2]): > 10000 nM

SMILES: CC[C@H](C)[C@H](NC(=O)[C@H](Cc1ccccc1)NC(=O)[C@H](CCC(=O)O)NC(=O)[C@H](CCCCN)NC(=O)[C@H](C)NC(=O)[C@H](C)NC(=O)[C@H](CCC(N)=O)NC(=O)CNC(=O)[C@H](CCC(=O)O)NC(=O)[C@H](CC(C)C)NC(=O)[C@H](Cc1ccc(O)cc1)NC(=O)[C@H](CO)NC(=O)[C@H](CO)NC(=O)[C@@H](NC(=O)[C@H](CC(=O)O)NC(=O)[C@H](CO)NC(=O)[C@@H](NC(=O)[C@H](Cc1ccccc1)NC(=O)[C@@H](NC(=O)CNC(=O)[C@H](CCC(=O)O)NC(=O)NC[C@H](CC(C)C)NC(=O)[C@@H](N)Cc1c[nH]cn1)[C@@H](C)O)[C@@H](C)O)C(C)C)C(=O)N[C@@H](C)C(=O)N[C@@H](Cc1c[nH]c2ccccc12)C(=O)N[C@@H](CC(C)C)C(=O)N[C@H](C(=O)N[C@@H](CCCCN)C(=O)NCC(=O)N[C@@H](CCCNC(=N)N)C(=O)NCC(N)=O)C(C)C [S7]
- Potency (%), Table S1 (mouse GLP-1 receptor): < 0.01%
- EC50 (mouse GLP-1 receptor; [2]): > 10000 nM

SMILES: CC[C@H](C)[C@H](NC(=O)[C@H](Cc1ccccc1)NC(=O)[C@H](CCC(=O)O)NC(=O)[C@H](CCCCN)NC(=O)[C@H](C)NC(=O)[C@H](C)NC(=O)[C@H](CCC(N)=O)NC(=O)CNC(=O)[C@H](CCC(=O)O)NC(=O)[C@H](CC(C)C)NC(=O)[C@H](Cc1ccc(O)cc1)NC(=O)[C@H](CO)NC(=O)[C@H](CO)NC(=O)[C@@H](NC(=O)[C@H](CC(=O)O)NC(=O)[C@H](CO)NC(=O)[C@@H](NC(=O)[C@H](Cc1ccccc1)NC(=O)[C@@H](NC(=O)CNC(=O)[C@H](CCC(=O)O)NC(=O)NC[C@H](CCCCN)NC(=O)[C@@H](N)Cc1c[nH]cn1)[C@@H](C)O)[C@@H](C)O)C(C)C)C(=O)N[C@@H](C)C(=O)N[C@@H](Cc1c[nH]c2ccccc12)C(=O)N[C@@H](CC(C)C)C(=O)N[C@H](C(=O)N[C@@H](CCCCN)C(=O)NCC(=O)N[C@@H](CCCNC(=N)N)C(=O)NCC(N)=O)C(C)C [S8]
- Potency (%), Table S1 (mouse GLP-1 receptor): < 0.01%
- EC50 (mouse GLP-1 receptor; [2]): > 10000 nM

SMILES: CC[C@H](C)[C@H](NC(=O)[C@H](Cc1ccccc1)NC(=O)[C@H](CCC(=O)O)NC(=O)[C@H](CCCCN)NC(=O)[C@H](C)NC(=O)[C@H](C)NC(=O)[C@H](CCC(N)=O)NC(=O)CNC(=O)[C@H](CCC(=O)O)NC(=O)[C@H](CC(C)C)NC(=O)[C@H](Cc1ccc(O)cc1)NC(=O)[C@H](CO)NC(=O)[C@H](CO)NC(=O)[C@@H](NC(=O)[C@H](CC(=O)O)NC(=O)[C@H](CO)NC(=O)[C@@H](NC(=O)[C@H](Cc1ccccc1)NC(=O)[C@@H](NC(=O)CNC(=O)[C@H](CCC(=O)O)NC(=O)NC[C@H](Cc1ccccc1)NC(=O)[C@@H](N)Cc1c[nH]cn1)[C@@H](C)O)[C@@H](C)O)C(C)C)C(=O)N[C@@H](C)C(=O)N[C@@H](Cc1c[nH]c2ccccc12)C(=O)N[C@@H](CC(C)C)C(=O)N[C@H](C(=O)N[C@@H](CCCCN)C(=O)NCC(=O)N[C@@H](CCCNC(=N)N)C(=O)NCC(N)=O)C(C)C [S9]
- Potency (%), Table S1 (mouse GLP-1 receptor): 21%
- EC50 (mouse GLP-1 receptor; [2]): 0.5 nM

SMILES: CC[C@H](C)[C@H](NC(=O)[C@H](Cc1ccccc1)NC(=O)[C@H](CCC(=O)O)NC(=O)[C@H](CCCCN)NC(=O)[C@H](C)NC(=O)[C@H](C)NC(=O)[C@H](CCC(N)=O)NC(=O)CNC(=O)[C@H](CCC(=O)O)NC(=O)[C@H](CC(C)C)NC(=O)[C@H](Cc1ccc(O)cc1)NC(=O)[C@H](CO)NC(=O)[C@H](CO)NC(=O)[C@@H](NC(=O)[C@H](CC(=O)O)NC(=O)[C@H](CO)NC(=O)[C@@H](NC(=O)[C@H](Cc1ccccc1)NC(=O)[C@@H](NC(=O)CNC(=O)[C@H](CCC(=O)O)NC(=O)NC[C@@H](NC(=O)[C@@H](N)Cc1c[nH]cn1)[C@@H](C)O)[C@@H](C)O)[C@@H](C)O)C(C)C)C(=O)N[C@@H](C)C(=O)N[C@@H](Cc1c[nH]c2ccccc12)C(=O)N[C@@H](CC(C)C)C(=O)N[C@H](C(=O)N[C@@H](CCCCN)C(=O)NCC(=O)N[C@@H](CCCNC(=N)N)C(=O)NCC(N)=O)C(C)C [S10]
- Potency (%), Table S1 (mouse GLP-1 receptor): 3%
- EC50 (mouse GLP-1 receptor; [2]): 3.3 nM

SMILES: CC[C@H](C)[C@H](NC(=O)[C@H](Cc1ccccc1)NC(=O)[C@H](CCC(=O)O)NC(=O)[C@H](CCCCN)NC(=O)[C@H](C)NC(=O)[C@H](C)NC(=O)[C@H](CCC(N)=O)NC(=O)CNC(=O)[C@H](CCC(=O)O)NC(=O)[C@H](CC(C)C)NC(=O)[C@H](Cc1ccc(O)cc1)NC(=O)[C@H](CO)NC(=O)[C@H](CO)NC(=O)[C@@H](NC(=O)[C@H](CC(=O)O)NC(=O)[C@H](CO)NC(=O)[C@@H](NC(=O)[C@H](Cc1ccccc1)NC(=O)[C@@H](NC(=O)CNC(=O)[C@H](CCC(=O)O)NC(=O)NC[C@H](Cc1c[nH]c2ccccc12)NC(=O)[C@@H](N)Cc1c[nH]cn1)[C@@H](C)O)[C@@H](C)O)C(C)C)C(=O)N[C@@H](C)C(=O)N[C@@H](Cc1c[nH]c2ccccc12)C(=O)N[C@@H](CC(C)C)C(=O)N[C@H](C(=O)N[C@@H](CCCCN)C(=O)NCC(=O)N[C@@H](CCCNC(=N)N)C(=O)NCC(N)=O)C(C)C [S11]
- EC50 (mouse GLP-1 receptor): 2.2 nM
- Potency (%), Table S1 (mouse GLP-1 receptor): 5%

SMILES: CC[C@H](C)[C@H](NC(=O)[C@H](Cc1ccccc1)NC(=O)[C@H](CCC(=O)O)NC(=O)[C@H](CCCCN)NC(=O)[C@H](C)NC(=O)[C@H](C)NC(=O)[C@H](CCC(N)=O)NC(=O)CNC(=O)[C@H](CCC(=O)O)NC(=O)[C@H](CC(C)C)NC(=O)[C@H](Cc1ccc(O)cc1)NC(=O)[C@H](CO)NC(=O)[C@H](CO)NC(=O)[C@@H](NC(=O)[C@H](CC(=O)O)NC(=O)[C@H](CO)NC(=O)[C@@H](NC(=O)[C@H](Cc1ccccc1)NC(=O)[C@@H](NC(=O)CNC(=O)[C@H](CCC(=O)O)NC(=O)CNC(=O)[C@@H](N)Cc1c[nH]cn1)[C@@H](C)O)[C@@H](C)O)C(C)C)C(=O)N[C@@H](C)C(=O)N[C@@H](Cc1c[nH]c2ccccc12)C(=O)N[C@@H](CC(C)C)C(=O)N[C@H](C(=O)N[C@@H](CCCCN)C(=O)NCC(=O)N[C@@H](CCCNC(=N)N)C(=O)NCC(N)=O)C(C)C [S12, reference compound]
- Potency (%), Table S1 (mouse GLP-1 receptor): 42%

SMILES: CC[C@H](C)[C@H](NC(=O)[C@H](Cc1ccccc1)NC(=O)[C@H](CCC(=O)O)NC(=O)[C@H](CCCCN)NC(=O)[C@H](C)NC(=O)[C@H](C)NC(=O)[C@H](CCC(N)=O)NC(=O)CNC(=O)[C@H](CCC(=O)O)NC(=O)[C@H](CC(C)C)NC(=O)[C@H](Cc1ccc(O)cc1)NC(=O)[C@H](CO)NC(=O)[C@H](CO)NC(=O)[C@@H](NC(=O)[C@H](CC(=O)O)NC(=O)[C@H](CO)NC(=O)[C@@H](NC(=O)[C@H](Cc1ccccc1)NC(=O)[C@@H](NC(=O)CNC(=O)[C@H](CCC(=O)O)NC(=O)[C@H](C)NC(=O)[C@@H](N)Cc1cnc[nH]1)[C@@H](C)O)[C@@H](C)O)C(C)C)C(=O)N[C@@H](C)C(=O)N[C@@H](Cc1c[nH]c2ccccc12)C(=O)N[C@@H](CC(C)C)C(=O)N[C@H](C(=O)N[C@@H](CCCCN)C(=O)NCC(=O)N[C@@H](CCCNC(=N)N)C(=O)NCC(N)=O)C(C)C [compound 2, GLP-1-NH2, reference compound]
- half-life at 5 µM [1]: 8.4 min
